Reference: publication PMC13195669, “GPR3 Ligands Discovered through Combined Virtual and Conformational Biosensor-Based Screening” (Journal of the American Chemical Society, 2026)

Molecular target: T1, GPR12 (Homo sapiens, UniProt P47775)
T1 construct: expressed in transfected cells; host or cells: HEK293A, transient
T1 sequence (P47775 1-334): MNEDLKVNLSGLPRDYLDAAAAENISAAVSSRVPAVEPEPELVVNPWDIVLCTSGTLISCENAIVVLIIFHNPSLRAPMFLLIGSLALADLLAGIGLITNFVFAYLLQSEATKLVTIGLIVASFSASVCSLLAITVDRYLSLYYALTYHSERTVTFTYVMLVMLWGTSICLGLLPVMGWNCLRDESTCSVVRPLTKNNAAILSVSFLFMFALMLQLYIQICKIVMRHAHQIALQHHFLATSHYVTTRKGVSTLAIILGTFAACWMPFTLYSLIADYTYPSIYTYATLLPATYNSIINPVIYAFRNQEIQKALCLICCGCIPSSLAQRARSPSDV
Assay: cAMP GloSensor 22F, GPR12-transfected HEK293A cells
Assay type: cell-based
Text: Next, we used the classical cAMP GloSensor technology to assess the target selectivity profile of 33. […] In addition, we tested the effects of 33 on cAMP changes mediated by agonist-stimulated GPCRs phylogenetically close to GPR3 and coupling to Gs or Gi/o proteins. […]
conditioning and no constraints were applied. The poses were visually inspected and the most favorable one that coincides with the co-solved ligand according to the available structures was chosen.
Plasmids and molecular cloning
The H187-EPAC-FRET sensor7 was kindly provided by K. Jalink (The Netherlands Cancer Institute, Amsterdam, The Nether-lands). The BRET-based cAMP sensor CAMYEL8 was kindly provided by Laura Humphrys (University of Regensburg, Regens-burg, Germany). Plasmids encoding the conformational biosensors α2AAR- and β2AR-HaloTag/Nluc9 and the Gs heterotrimer dissociation sensor10 were previously described. The expression plasmid encoding N-terminally HA-tagged GPR3 (cat. no.
#GPR003TN00) on a pcDNA3.1+ vector was obtained from the cDNA resource center (cdna.org). The Nluc and HaloTag in-serts were amplified with overhanging restriction sites from β2AAR- HaloTag/Nluc and ligated to the full-length C-terminus or inserted into icl3 of GPR3, respectively, to obtain the conformational biosensor GPR3-HaloTag/Nluc. […]

With `N=c1n(Cc2ccccc2)c2ccccc2n1CC1CC1` [compound 33] the “receptor-specific change in cAMP, GPR12” value was “no receptor-specific changes in cAMP levels below 100 μM”.
